Experiments:
[1] = tested on: norepinephrine uptake by synaptosomes from rat brain; experiment: Blockage of norepinephrine uptake in vitro by synaptosomes from rat brain (Table 1); format: biochemical; conditions: norepinephrine 0.48 μuM, read-out: IC50 Norepinephrine (concentration that blocks uptake by 50 percent)
Source text: (§1) This blockade is shown both in vitro using radioactive labelled compounds to determine the amount of monoamine uptake by synaptosomes from rat brain, and in vivo by a variety of methods using the procedure of Wong and Bymaster, Biochem. Pharmacol., 25, 1978 (1976). Among the physiologically active monoamines whose uptake is blocked by the compounds of this invention are included serotonin, norepinephrine and dopamine (3,4-dihydroxyphenylethylamine). […] Table 1 which follows sets forth the results of some of the in vitro determinations of the blockage of monoamine uptake by the compounds of this invention. In the table, column 1 gives the R substituent on the 1-phenylpropylamine, colums 2 and 3, the R^1 and R^2 substituents on the amine nitrogen and columns […], the concentration in micrograms per ml. that blocks the uptake of a particular amine by 50 percent (IC50) for the amines, serotonin and norephinephrine. At the head of each column is given the concentration of the particular monoamine used in the experiment.

[2] = tested on: serotonin uptake by synaptosomes from rat brain; experiment: Blockage of serotonin uptake in vitro by synaptosomes from rat brain (Table 1); format: biochemical; conditions: serotonin 0.1 μuM, read-out: IC50 Serotonin (concentration that blocks uptake by 50 percent)
Source text: as §1

[3] = target: dopamine uptake from synaptosomes isolated from corpus striatum (Rattus norvegicus, UniProt P23977); experiment: Inhibition of dopamine uptake in synaptosomes isolated from corpus striatum
Sequence of dopamine uptake from synaptosomes isolated from corpus striatum (P23977 whole entry): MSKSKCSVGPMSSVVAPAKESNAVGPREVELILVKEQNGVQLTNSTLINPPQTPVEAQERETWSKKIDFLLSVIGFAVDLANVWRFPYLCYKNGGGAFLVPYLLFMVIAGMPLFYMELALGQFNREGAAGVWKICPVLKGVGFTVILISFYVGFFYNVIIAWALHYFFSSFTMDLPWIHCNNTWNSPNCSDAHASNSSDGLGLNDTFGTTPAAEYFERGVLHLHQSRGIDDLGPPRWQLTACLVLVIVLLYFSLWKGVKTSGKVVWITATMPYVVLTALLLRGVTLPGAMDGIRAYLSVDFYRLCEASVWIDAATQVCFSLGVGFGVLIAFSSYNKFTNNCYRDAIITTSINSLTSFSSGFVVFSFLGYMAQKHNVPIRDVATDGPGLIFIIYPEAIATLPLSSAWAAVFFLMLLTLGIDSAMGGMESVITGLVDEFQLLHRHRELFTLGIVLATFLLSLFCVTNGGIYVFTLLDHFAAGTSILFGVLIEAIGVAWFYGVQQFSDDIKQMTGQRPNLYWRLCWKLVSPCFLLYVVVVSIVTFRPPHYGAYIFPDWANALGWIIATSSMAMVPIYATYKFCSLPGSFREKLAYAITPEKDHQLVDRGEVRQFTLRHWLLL

uptake of norepinephrine = target: T1, uptake of norepinephrine (Rattus norvegicus, UniProt Q63380); experiment: Inhibition of norepinephrine uptake in synaptosomes, kinetics; format: biochemical, Sprague-Dawley rats
T1 construct: from tissue; host or cells: synaptosomes of Sprague-Dawley rat brain (cortex, by 'similar experiment')
T1 sequence (Q63380 1-617): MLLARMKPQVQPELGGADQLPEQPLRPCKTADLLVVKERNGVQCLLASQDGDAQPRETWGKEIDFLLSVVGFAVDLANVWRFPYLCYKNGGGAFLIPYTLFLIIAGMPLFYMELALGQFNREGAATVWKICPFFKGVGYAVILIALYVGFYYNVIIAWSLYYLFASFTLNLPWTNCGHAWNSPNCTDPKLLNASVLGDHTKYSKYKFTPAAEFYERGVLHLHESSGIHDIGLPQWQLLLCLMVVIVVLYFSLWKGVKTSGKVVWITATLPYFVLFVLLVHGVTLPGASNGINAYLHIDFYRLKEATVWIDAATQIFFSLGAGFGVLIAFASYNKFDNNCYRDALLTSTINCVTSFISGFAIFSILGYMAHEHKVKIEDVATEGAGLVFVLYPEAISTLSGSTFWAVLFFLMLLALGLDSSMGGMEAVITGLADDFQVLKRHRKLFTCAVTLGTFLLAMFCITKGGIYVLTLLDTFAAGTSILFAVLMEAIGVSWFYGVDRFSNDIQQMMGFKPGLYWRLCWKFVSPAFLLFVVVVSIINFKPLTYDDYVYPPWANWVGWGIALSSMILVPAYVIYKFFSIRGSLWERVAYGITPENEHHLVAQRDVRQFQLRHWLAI
Method: (§3) The uptake of serotonin in cortical synaptosomes and in platelets of human plasma in the presence of this compound were studied. Corticosynaptosomes were prepared as follows: Sprague-Dawley rats weighing about 150 g. were decapitated and their brains immediately removed and dissected. Crude synaptosomes were prepared from a 10 percent homogenate in 0.32 M scurose and in 10 μM glucose by differential centrifugation according to the procedure of Wong and Bymaster (loc. cit.).

[4] = tested on: uptake of physiologically active monoamines; experiment: Blocking of uptake of physiologically active monoamines (serotonin, norepinephrine, dopamine); conditions: in vitro and in vivo
Source text: as §1

[5] = tested on: uptake of serotonin by hypothalamic synaptosomes; experiment: In vivo inhibition of serotonin uptake by hypothalamic synaptosomes after intraperitoneal injection; conditions: ip, as hydrochloride salt, read-out: calculated ED50 (effective dose), inhibition of serotonin uptake by hypothalamic synaptosomes
Method: (§2) There was also a decrease in norepinephrine uptake at a 100 mg./kg level but the reduction was less than 50% at this high dose level.

[6] = tested on: serotonin uptake versus norepinephrine uptake; experiment: Relative effectiveness in inhibiting serotonin versus norepinephrine uptake
[7] = tested on: uptake of serotonin by platelets; conditions: human platelet-rich plasma; estimated value
Method: A study of the uptake of serotonin from platelets was carried out as follows: platelet-rich plasma from human volunteers was prepared according to the method of Sneddon, Brit. […] The platelet uptake of serotonin was determined by the procedure of Horng and Wong, Biochem. Pharmacol., 25, 865 (1976).

[8] = target: uptake of serotonin in cortical synaptosomes (Rattus norvegicus, UniProt P31652); experiment: Inhibition of serotonin uptake in cortical synaptosomes, kinetics; format: biochemical, Sprague-Dawley rats
Sequence of uptake of serotonin in cortical synaptosomes (P31652 whole entry): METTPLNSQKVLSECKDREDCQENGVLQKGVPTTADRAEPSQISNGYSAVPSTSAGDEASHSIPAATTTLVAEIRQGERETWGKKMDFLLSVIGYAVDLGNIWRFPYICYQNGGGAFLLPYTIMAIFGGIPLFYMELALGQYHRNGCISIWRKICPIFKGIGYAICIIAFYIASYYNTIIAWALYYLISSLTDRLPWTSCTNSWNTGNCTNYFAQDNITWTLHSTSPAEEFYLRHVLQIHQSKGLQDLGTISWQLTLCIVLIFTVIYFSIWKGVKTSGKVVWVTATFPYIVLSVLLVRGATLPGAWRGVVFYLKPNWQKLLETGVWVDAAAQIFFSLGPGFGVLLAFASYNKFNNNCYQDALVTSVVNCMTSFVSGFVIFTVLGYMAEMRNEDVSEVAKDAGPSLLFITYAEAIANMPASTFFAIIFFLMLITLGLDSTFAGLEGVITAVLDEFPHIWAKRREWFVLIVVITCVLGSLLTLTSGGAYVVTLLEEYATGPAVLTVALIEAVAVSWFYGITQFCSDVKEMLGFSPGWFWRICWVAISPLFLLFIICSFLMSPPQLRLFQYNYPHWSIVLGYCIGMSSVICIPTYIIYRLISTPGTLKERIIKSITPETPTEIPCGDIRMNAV
Method: as §3

norepinephrine uptake = experiment: In vivo decrease in norepinephrine uptake after intraperitoneal injection; conditions: 100 mg./kg level, hydrochloride salt
Method: as §2

[9] = tested on: chronic undifferentiated schizophrenic patients; conditions: oral administration, cited from earlier work

COc1ccccc1OCCC(c1ccccc1)N(C)C (stereo not shown) [o-anisyl, CH3, CH3, N,N-dimethyl 3-(o-anisyloxy)-1-phenylpropylamine]
IC50 [1]: 0.3 µM | IC50 [2]: 0.1 µM

CNC(CCOc1ccc(C(F)(F)F)cc1)c1ccccc1 (stereo not shown) [p-trifluoromethylphenyl, CH3, H, N-methyl 1-phenyl-3-(p-trifluoromethylphenoxy)-propylamine]
IC50 [1]: 10 µM | IC50 [2]: 0.21 µM

Cc1cccc(OCCC(c2ccccc2)N(C)C)c1 (stereo not shown) [m-tolyl, CH3, CH3]
IC50 [1]: 5.1 µM | IC50 [2]: 0.08 µM

COc1ccc(OCCC(N)c2ccccc2)cc1 (stereo not shown) [p-anisyl, H, H, 3-(p-anisyloxy)-1-phenylpropylamine]
IC50 [1]: 7 µM | IC50 [2]: 0.35 µM

CN(C)C(CCOc1ccccc1)c1ccccc1 (stereo not shown) [phenyl, CH3, CH3, N,N-dimethyl 1-phenyl-3-phenoxypropylamine]
IC50 [1]: 0.7 µM | IC50 [2]: 1 µM

NC(CCOc1ccccc1)c1ccccc1 (stereo not shown) [phenyl, H, H, 1-Phenyl-3-phenoxypropylamine]
IC50 [1]: 0.56 µM | IC50 [2]: 5.6 µM

Cc1cccc(OCCC(N)c2ccccc2)c1 (stereo not shown) [m-tolyl, H, H]
IC50 [1]: 5.7 µM | IC50 [2]: 1.4 µM

Cc1ccccc1OCCC(N)c1ccccc1 (stereo not shown) [o-tolyl, H, H, 3-(o-cresol)-1-phenylpropylamine]
IC50 [1]: 4.6 µM | IC50 [2]: 0.35 µM

CNC(CCOc1ccccc1OC)c1ccccc1 (stereo not shown) [o-anisyl, CH3, H, N-methyl 1-phenyl-3-(o-anisyloxy)propylamine]
IC50 [1]: 0.5 µM | IC50 [2]: 0.5 µM

CN(C)C(CCOc1ccc(C(F)(F)F)cc1)c1ccccc1 (stereo not shown) [p-trifluoromethylphenyl, CH3, CH3, N,N-dimethyl 1-phenyl-3-(p-trifluoromethylphenoxy)-propylamine]
IC50 [1]: 10 µM | IC50 [2]: 0.21 µM

COc1ccc(OCCC(c2ccccc2)N(C)C)cc1 (stereo not shown) [p-anisyl, CH3, CH3, N,N-dimethyl 3-(p-anisyloxy)-1-phenylpropylamine]
IC50 [1]: 5.1 µM | IC50 [2]: 0.28 µM

Cc1ccc(OCCC(c2ccccc2)N(C)C)cc1 (stereo not shown)
Ki [3]: 2.5 µM | mode of inhibition of norepinephrine uptake (uptake of norepinephrine): competitively inhibited the uptake of norepinephrine | Ki (uptake of norepinephrine; synaptosomes, competitive, read-out: inhibitory constant KI, norepinephrine uptake): 2.2 µM | block of uptake of monoamines (in words) [4]: particularly active in inhibiting the uptake of biogenic amines | ED50 [5]: 12 mg/kg | relative effectiveness, serotonin versus norepinephrine uptake (in words) [6]: far more effective in inhibiting serotonin uptake than in inhibiting norepinephrine uptake | estimated IC50, serotonin uptake by platelets [7]: 14 nmol | IC50 [1]: 5 µM | IC50 [2]: 0.08 µM | mode of inhibition of serotonin uptake ([8]; 0.01, 0.05 and 0.1 μM): competitively inhibited uptake of serotonin | Ki ([8]; cortical synaptosomes, compound at 0.01, 0.05 and 0.1 μM, competitive, read-out: inhibitor constant KI, serotonin uptake): 0.06 µM | reduction in norepinephrine uptake (norepinephrine uptake): less than 50%

COc1cccc(OCCC(N)c2ccccc2)c1 (stereo not shown) [m-anisyl, H, H, 1-Phenyl-3-(m-anisyloxy)propylamine]
IC50 [1]: 3 µM | IC50 [2]: 2 µM

Cc1ccc(OCCC(N)c2ccccc2)cc1 (stereo not shown) [p-tolyl, H, H]
IC50 [1]: 2.1 µM | IC50 [2]: 0.4 µM

CNC(CCOc1ccccc1)c1ccccc1 (stereo not shown) [phenyl, CH3, H, N-methyl 3-phenoxy-1-phenylpropylamine]
IC50 [1]: 0.36 µM | IC50 [2]: 1 µM

NC(CCOc1ccc(C(F)(F)F)cc1)c1ccccc1 (stereo not shown) [p-trifluoromethylphenyl, H, H, 1-phenyl-3-(p-trifluoromethylphenoxy)propylamine]
IC50 [1]: 10 µM | IC50 [2]: 0.32 µM

N[C@@H](Cc1c[nH]c2ccc(O)cc12)C(=O)O [l-5-hydroxytryptophane]
number of schizophrenic patients improved, of 7 ([9]; 6 of 7 patients): 6 patients | improvement in schizophrenic patients (in words) [9]: mild to moderate improvement

COc1ccccc1OCCC(N)c1ccccc1 (stereo not shown) [o-anisyl, H, H, 1-phenyl-3-(o-anisyloxy)propylamine]
IC50 [1]: 1.4 µM | IC50 [2]: 4.3 µM
